Source: patent US20260217735A1, “HETEROCYCLES AND USES THEREOF” (Kumquat Biosciences Inc., priority 2023, published 2026)

Legend:
[1] = target: T1, KRAS WT (Homo sapiens, UniProt P01116); experiment: HTRF assay, wildtype KRAS interaction with SOS1; type: biochemical; details: bins <500 nM / 500 nM to 1000 nM, read-out: Inhibition of KRAS WT (IC50)
T1 construct: made in house; host or cells: E. coli, e.g. BL21 (DE3)

[2] = target: T2, KRAS G12V (Homo sapiens, UniProt P01116, G12V); experiment: HTRF assay, KRAS G12V interaction with SOS1; type: biochemical; details: bins <500 nM / 500 nM to 1000 nM, read-out: Inhibition of KRAS G12V (IC50)
T2 construct: made in house; host or cells: E. coli, e.g. BL21 (DE3)

[3] = target: T3, KRAS G12D (Homo sapiens, UniProt P01116, G12D); experiment: HTRF assay, KRAS G12D interaction with SOS1; type: biochemical; details: bins <500 nM / 500 nM to 1000 nM, read-out: Inhibition of KRAS G12D (IC50)
T3 construct: made in house; host or cells: E. coli, e.g. BL21 (DE3)

[4] = system: MiaPaca2 cells; experiment: Ras cellular assay, growth of cells with K-Ras G12C mutation; type: cell-based; details: Homo sapiens, MIA PaCa-2; cell proliferation assay; bins ≤500 nM / >500 nM; read-out: Inhibition of MiaPaca2 Cells (IC50)
How it was run: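 Anchorage-independent growth: G12C-mutant MIA PaCa-2 plated in soft agar, time-zero plate read the next day when compound was dosed (final DMSO 0.3%). After growth to day 10, MTS-type absorbance at 490/660 nm relative to time zero gave IC50 via four-parameter fitting.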

[5] = target: T4, KRAS G12S (Homo sapiens, UniProt P01116, G12S); experiment: HTRF assay, KRAS G12S interaction with SOS1; type: biochemical; details: bins <500 nM / 500 nM to 1000 nM, read-out: Inhibition of KRAS G12S (IC50)
T4 construct: made in house; host or cells: E. coli, e.g. BL21 (DE3)
T4 sequence (P01116 1-188 isoform P01116-2 G12S): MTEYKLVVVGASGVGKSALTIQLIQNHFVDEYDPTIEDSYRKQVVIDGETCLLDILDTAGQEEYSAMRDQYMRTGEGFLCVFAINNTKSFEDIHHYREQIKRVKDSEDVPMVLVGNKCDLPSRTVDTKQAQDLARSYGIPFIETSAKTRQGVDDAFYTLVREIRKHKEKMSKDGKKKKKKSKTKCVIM

T1 sequence (P01116 1-188 isoform P01116-2): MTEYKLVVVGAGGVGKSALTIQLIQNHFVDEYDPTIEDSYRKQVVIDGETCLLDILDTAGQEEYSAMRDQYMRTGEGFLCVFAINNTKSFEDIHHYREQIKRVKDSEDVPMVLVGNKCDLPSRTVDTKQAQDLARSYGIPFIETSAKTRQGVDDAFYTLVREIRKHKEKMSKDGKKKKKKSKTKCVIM
T3 sequence (P01116 1-188 isoform P01116-2 G12D): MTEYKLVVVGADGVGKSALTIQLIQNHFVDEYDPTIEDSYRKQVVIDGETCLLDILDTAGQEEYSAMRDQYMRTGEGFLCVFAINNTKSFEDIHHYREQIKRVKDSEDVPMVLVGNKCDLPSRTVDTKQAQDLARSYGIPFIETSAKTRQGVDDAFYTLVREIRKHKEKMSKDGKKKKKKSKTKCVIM
T2 sequence (P01116 1-188 isoform P01116-2 G12V): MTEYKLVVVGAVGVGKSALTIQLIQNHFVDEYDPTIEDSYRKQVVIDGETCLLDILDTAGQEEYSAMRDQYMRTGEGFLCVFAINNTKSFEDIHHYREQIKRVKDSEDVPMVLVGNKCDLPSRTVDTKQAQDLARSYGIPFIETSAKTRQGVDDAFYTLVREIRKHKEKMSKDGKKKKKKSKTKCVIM

Row | SMILES | IC50 [1] | IC50 [2] | IC50 [3] | IC50 [4] | IC50 [5]
1 | Cc1cn(C(=O)N2CC[C@@H](N(C)c3nc(OC[C@@]45CCCN4C[C@H](F)C5)nc4c(F)c(-c5ccc(F)c6sc(N)c(C#N)c56)c(Cl)cc34)[C@H]2C)cn1 [Compound 144, 2-amino-4-(6-chloro-8-fluoro-2-(((2R,7aS)-2-fluorotetrahydro-1H-pyrrolizin-7a(5H)-yl)methoxy)-4-(methyl((2R,3R)-2-methyl-1-(4-methyl-1H-imidazole-1-carbonyl)pyrrolidin-3-yl)amino)quinazolin-7-yl)-7-fluorobenzo[b]thiophene-3-carbonitrile] | < 500 nM | < 500 nM | < 500 nM | ≤ 500 nM | < 500 nM
2 | CCN(c1nc(OC[C@@]23CCCN2C[C@H](F)C3)nc2c(F)c(-c3ccc(F)c4sc(N)c(C#N)c34)c(Cl)cc12)[C@@H]1CCN(C(=O)n2cnc(C)c2C)[C@@H]1C [Compound 145, 2-amino-4-(6-chloro-4-(((2R,3R)-1-(4,5-dimethyl-1H-imidazole-1-carbonyl)-2-methylpyrrolidin-3-yl)(ethyl)amino)-8-fluoro-2-(((2R,7aS)-2-fluorotetrahydro-1H-pyrrolizin-7a(5H)-yl)methoxy)quinazolin-7-yl)-7-fluorobenzo[b]thiophene-3-carbonitrile] | < 500 nM | < 500 nM | < 500 nM | ≤ 500 nM | < 500 nM
3 | Cc1ncn(C(=O)N2CC[C@@]23CCN(c2nc(OC[C@@]45CCCN4C[C@H](F)C5)nc4c(F)c(-c5ccc(F)c6sc(N)c(C#N)c56)c(Cl)cc24)C3)c1C [Compound 147, 2-amino-4-(6-chloro-4-((R)-1-(4,5-dimethyl-1H-imidazole-1-carbonyl)-1,6-diazaspiro[3.4]octan-6-yl)-8-fluoro-2-(((2R,7aS)-2-fluorotetrahydro-1H-pyrrolizin-7a(5H)-yl)methoxy)quinazolin-7-yl)-7-fluorobenzo[b]thiophene-3-carbonitrile] | < 500 nM | < 500 nM | < 500 nM | ≤ 500 nM | < 500 nM
4 | CCN(c1nc(OC[C@@]23CCCN2C[C@H](F)C3)nc2c(F)c(-c3ccc(F)c4sc(N)c(C#N)c34)c(C(F)(F)F)cc12)[C@@H]1CCN(C(=O)n2ccnc2C)[C@@H]1C [Compound 148, 2-amino-4-(4-(ethyl((2R,3R)-2-methyl-1-(2-methyl-1H-imidazole-1-carbonyl)pyrrolidin-3-yl)amino)-8-fluoro-2-(((2R,7aS)-2-fluorotetrahydro-1H-pyrrolizin-7a(5H)-yl)methoxy)-6-(trifluoromethyl)quinazolin-7-yl)-7-fluorobenzo[b]thiophene-3-carbonitrile] | < 500 nM | < 500 nM | < 500 nM | ≤ 500 nM | < 500 nM
5 | CCN(c1nc(OC[C@@]23CCCN2C[C@H](F)C3)nc2c(F)c(-c3ccc(F)c4sc(N)c(C#N)c34)c(Cl)cc12)[C@@H]1CCN(C(=O)n2cnc(C#N)c2C)[C@@H]1C [Compound 149, 1-((2R,3R)-3-((7-(2-amino-3-cyano-7-fluorobenzo[b]thiophen-4-yl)-6-chloro-8-fluoro-2-(((2R,7aS)-2-fluorotetrahydro-1H-pyrrolizin-7a(5H)-yl)methoxy)quinazolin-4-yl)(ethyl)amino)-2-methylpyrrolidine-1-carbonyl)-5-methyl-1H-imidazole-4-carbonitrile] | < 500 nM | < 500 nM | < 500 nM | ≤ 500 nM | < 500 nM
6 | Cc1cn(C(=O)N(C)C2CN(c3nc(OC[C@@]45CCCN4C[C@H](F)C5)nc4c(F)c(-c5ccc(F)c6sc(N)c(C#N)c56)c(Cl)cc34)CC2F)cn1 (stereo partly drawn) [Compound 151, N-(1-((R)-7-(2-amino-3-cyano-7-fluorobenzo[b]thiophen-4-yl)-6-chloro-8-fluoro-2-(((2R,7aS)-2-fluorotetrahydro-1H-pyrrolizin-7a(5H)-yl)methoxy)quinazolin-4-yl)-4-fluoropyrrolidin-3-yl)-N,4-dimethyl-1H-imidazole-1-carboxamide] | < 500 nM | < 500 nM | < 500 nM | ≤ 500 nM | < 500 nM
7 | CC[C@H]1N(C(=O)n2cnc(C#N)c2C)C[C@]12CCCCN(c1nc(OC[C@@]34CCCN3C[C@H](F)C4)nc3c(F)c(-c4ccc(F)c5sc(N)c(C#N)c45)c(Cl)cc13)C2 [Compound 152, 1-((1R,4R)-6-(7-(2-amino-3-cyano-7-fluorobenzo[b]thiophen-4-yl)-6-chloro-8-fluoro-2-(((2R,7aS)-2-fluorotetrahydro-1H-pyrrolizin-7a(5H)-yl)methoxy)quinazolin-4-yl)-1-ethyl-2,6-diazaspiro[3.6]decane-2-carbonyl)-5-methyl-1H-imidazole-4-carbonitrile] | < 500 nM | < 500 nM | < 500 nM | ≤ 500 nM | < 500 nM
8 | Cc1nccn1C(=O)N1CC2(CCCCN(c3nc(OC[C@@]45CCCN4C[C@H](F)C5)nc4c(F)c(-c5ccc(F)c6sc(N)c(C#N)c56)c(Cl)cc34)C2)C1 [Compound 154, 2-amino-4-(6-chloro-8-fluoro-2-(((2R,7aS)-2-fluorotetrahydro-1H-pyrrolizin-7a(5H)-yl)methoxy)-4-(2-(2-methyl-1H-imidazole-1-carbonyl)-2,6-diazaspiro[3.6]decan-6-yl)quinazolin-7-yl)-7-fluorobenzo[b]thiophene-3-carbonitrile] | < 500 nM | < 500 nM | < 500 nM | ≤ 500 nM | < 500 nM
9 | Cc1cn(C(=O)N2CC(CN(C)c3nc(OC[C@@]45CCCN4C[C@H](F)C5)nc4c(F)c(-c5ccc(F)c6sc(N)c(C#N)c56)c(Cl)cc34)(C(F)F)C2)cn1 [Compound 156, 2-amino-4-(6-chloro-4-(((3-(difluoromethyl)-1-(4-methyl-1H-imidazole-1-carbonyl)azetidin-3-yl)methyl)(methyl)amino)-8-fluoro-2-(((2R,7aS)-2-fluorotetrahydro-1H-pyrrolizin-7a(5H)-yl)methoxy)quinazolin-7-yl)-7-fluorobenzo[b]thiophene-3-carbonitrile] | < 500 nM | < 500 nM | < 500 nM | ≤ 500 nM | < 500 nM
10 | Cc1nc(C#N)cn1C(=O)N1CC[C@@H](N(C)c2nc(OC[C@@]34CCCN3C[C@H](F)C4)nc3c(F)c(-c4ccc(F)c5sc(N)c(C#N)c45)c(Cl)cc23)[C@H]1C [Compound 158, 1-((2R,3R)-3-((7-(2-amino-3-cyano-7-fluorobenzo[b]thiophen-4-yl)-6-chloro-8-fluoro-2-(((2R,7aS)-2-fluorotetrahydro-1H-pyrrolizin-7a(5H)-yl)methoxy)quinazolin-4-yl)(methyl)amino)-2-methylpyrrolidine-1-carbonyl)-2-methyl-1H-imidazole-4-carbonitrile] | < 500 nM | < 500 nM | < 500 nM | ≤ 500 nM | < 500 nM
11 | CCN(c1nc(OC[C@@]23CCCN2C[C@H](F)C3)nc2c(F)c(-c3ccc(F)c4sc(N)c(C#N)c34)c(C(F)(F)F)cc12)[C@@H]1CCN(C(=O)n2cc(C#N)nc2C)[C@@H]1C [Compound 159, 1-((2R,3R)-3-((7-(2-amino-3-cyano-7-fluorobenzo[b]thiophen-4-yl)-8-fluoro-2-(((2R,7aS)-2-fluorotetrahydro-1H-pyrrolizin-7a(5H)-yl)methoxy)-6-(trifluoromethyl)quinazolin-4-yl)(ethyl)amino)-2-methylpyrrolidine-1-carbonyl)-2-methyl-1H-imidazole-4-carbonitrile] | < 500 nM | < 500 nM | < 500 nM | ≤ 500 nM | < 500 nM
12 | CC1C(N(C)c2nc(OC[C@@]34CCCN3C[C@H](F)C4)nc3c(F)c(-c4ccc(F)c5sc(N)c(C#N)c45)c(Cl)cc23)CCN1C(=O)n1cnc(F)n1 (stereo partly drawn) [Compound 160, 2-amino-4-(6-chloro-8-fluoro-4-((1-(3-fluoro-1H-1,2,4-triazole-1-carbonyl)-2-methylpyrrolidin-3-yl)(methyl)amino)-2-(((2R,7aS)-2-fluorotetrahydro-1H-pyrrolizin-7a(5H)-yl)methoxy)quinazolin-7-yl)-7-fluorobenzo[b]thiophene-3-carbonitrile] | < 500 nM | < 500 nM | < 500 nM | ≤ 500 nM | < 500 nM
13 | Cc1c(C#N)ncn1C(=O)N1C[C@]2(CCCCN(c3nc(OC[C@@]45CCCN4C[C@H](F)C5)nc4c(F)c(-c5ccc(F)c6sc(N)c(C#N)c56)c(Cl)cc34)C2)[C@H]1C [Compound 161, 1-((1R,4R)-6-(7-(2-amino-3-cyano-7-fluorobenzo[b]thiophen-4-yl)-6-chloro-8-fluoro-2-(((2R,7aS)-2-fluorotetrahydro-1H-pyrrolizin-7a(5H)-yl)methoxy)quinazolin-4-yl)-1-methyl-2,6-diazaspiro[3.6]decane-2-carbonyl)-5-methyl-1H-imidazole-4-carbonitrile] | < 500 nM | < 500 nM | < 500 nM | ≤ 500 nM | < 500 nM
